Measurements published in publication PMC5630390, “7-ketocholesterol and 27-hydroxycholesterol decreased doxorubicin sensitivity in breast cancer cells: estrogenic activity and mTOR pathway” (Oncotarget, 2017).

Target: T1, ERα (Homo sapiens, UniProt P03372)
T1 construct: gene ESR1; recombinant human ERα expressed in yeast with a LacZ reporter construct
T1 sequence (P03372 1-595): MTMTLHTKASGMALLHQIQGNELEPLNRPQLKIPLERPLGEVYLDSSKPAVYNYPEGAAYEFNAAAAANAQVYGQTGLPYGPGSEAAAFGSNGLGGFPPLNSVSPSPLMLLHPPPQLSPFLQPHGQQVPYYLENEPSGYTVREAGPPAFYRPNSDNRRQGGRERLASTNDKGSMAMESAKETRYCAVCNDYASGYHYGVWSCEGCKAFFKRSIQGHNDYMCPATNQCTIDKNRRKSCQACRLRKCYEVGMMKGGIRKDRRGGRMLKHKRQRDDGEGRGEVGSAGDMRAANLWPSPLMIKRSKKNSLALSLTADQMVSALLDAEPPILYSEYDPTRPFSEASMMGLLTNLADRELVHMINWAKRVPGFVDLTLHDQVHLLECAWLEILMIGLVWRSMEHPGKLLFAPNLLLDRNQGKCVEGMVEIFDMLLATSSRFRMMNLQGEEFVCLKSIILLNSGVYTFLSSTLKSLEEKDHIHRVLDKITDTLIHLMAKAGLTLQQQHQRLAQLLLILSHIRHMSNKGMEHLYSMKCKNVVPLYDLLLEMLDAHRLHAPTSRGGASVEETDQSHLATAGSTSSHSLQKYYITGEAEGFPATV
Experiment: yeast ER reporter (YES) assay, agonist mode, […] h; weak, […] stimulation at […]
Type: cell-based

## CC(C)CCC[C@@H](C)[C@H]1CC[C@H]2[C@@H]3C(=O)C=C4C[C@@H](O)CC[C@]4(C)[C@H]3CC[C@]12C [7-KC, 7-ketocholesterol]
  activation at 50 µM: 14%
